In one experiment the test system is KPC P. aeruginosa. The following applies: KPC P. aeruginosa strain of previous animal study, cited from earlier work.
The test system of experiment [1] is two ESBL-producing Enterobacterales and one AmpC- and one VIM-producing P. aeruginosa isolates. Put plainly: Checkerboard broth microdilution MIC, all four strains together. It counts as cell-based. The source says: Four previously well-characterized cefepime-resistant isolates, namely one ESBL-producing E. coli, one ESBL-producing K. pneumoniae and two P. aeruginosa (one VIM- and one AmpC constitutively -producing), were used.
For orientation: In broth dilution the organism is exposed to a series of concentrations in liquid medium.

A further experiment has as its system KPC K. pneumoniae. The following applies: KPC K. pneumoniae strain of previous animal study, cited from earlier work.
The test system of experiment [2] is ESBL-producing Enterobacterales. Put plainly: Neutropenic murine thigh infection model, Enterobacterales together. It counts as in vivo. The following applies: Ct where in vitro reversal of cefepime resistance was found. The method, then: (§1) […]. […] […]. All dosing regimens were performed in at least two animals per dosing regimen.
(§2) At t = 0 h, 2 h after infection, two mice were humanely euthanized to determine the initial number of cfu/thigh just before treatment. All other animals were euthanized at t = 24 h unless the welfare of the animals indicated earlier termination, following animal welfare regulations. Thighs were taken and moved to a pre-cooled 10 mL plastic tube (Transport Tube, Omnilabo, NL) containing 2 mL PBS (NaCl 8.00 g/L, Na2HPO4 * 2H2O 1.44 g/L, KH2PO4 0.26 g/L, pH 7.2–7.4). Subsequently, thighs were homogenized using the Ultra-Turrax homogenizer (IKA Labortechnik, Germany). For each thigh 10-fold dilution series were prepared and 3 × 10 µL per dilution were plated (Chromagar, bioMérieux, NL). The following day, colonies were counted and the number of cfu/thigh was calculated. The drug effect was then determined as the difference between the log10cfu/thigh values at t = 24 h and t = 0 h (mean value of two mice) expressed as Δlog10cfu, i.e. positive result for growth, zero for static effect and negative for reduction of inoculum (killing).
(§3) . […] Free drug concentrations were used in all calculations. […]

Experiment [3] has as its system MBL- and ESBL-producing isolates. The following applies: cited from earlier work.
In the next experiment the test system is P. aeruginosa isolates. Put plainly: Neutropenic murine thigh infection model, P. aeruginosa isolates together. It counts as in vivo, Pseudomonas aeruginosa. The following applies: Ct where in vitro reversal of cefepime resistance was found. The method, then: as §1, §2, §3

With `CO/N=C(\C(=O)N[C@@H]1C(=O)N2C(C(=O)[O-])=C(C[N+]3(C)CCCC3)CS[C@H]12)c1csc(N)n1` [cefepime, Cefepime], the “unpotentiated cefepime MIC” value in the experiment on KPC P. aeruginosa and in the experiment on KPC K. pneumoniae was over 512 mg/L throughout. In addition, the “potentiated cefepime MIC” value in the experiment on KPC P. aeruginosa (with taniborbactam) was 4 mg/L; with KPC K. pneumoniae (with taniborbactam) it was 2 mg/L. In experiment [1] (+taniborbactam 4 mg/L), the “Cefepime MIC in the presence of 4 mg/L taniborbactam, all strains” value lay within 0.06 to 4 mg/L. For the same compound, the MIC in experiment [1] (Pseudomonas aeruginosa, read-out: Cefepime MIC, all strains, cefepime alone) was 16 to 256 µg/mL. Further, the “Cefepime MIC, all strains” value in experiment [1] (cefepime alone) is over 8 mg/L.

Consider `NCCN[C@H]1CC[C@H](CC(=O)N[C@H]2Cc3cccc(C(=O)O)c3OB2O)CC1` [taniborbactam, Taniborbactam], for which, in experiment [2], the “%fT > Ct for 1 log kill” value stood at 100% and the “%fT > Ct for stasis” value is given as about 50%. In addition, the “Cefepime MIC reduction” value in experiment [3] is recorded as at least 2 fold. In the experiment with P. aeruginosa isolates, the “%fT > Ct for 1 log kill” value is given as about 60% and the “%fT > Ct for stasis” value is listed as about 40%.

One may read the MIC as the lowest concentration that inhibits growth of the organism.

The record behind these values is PMC12802961 (Journal of Antimicrobial Chemotherapy, 2025).
